BindingDB's records for doi:10.1002/cbic.201600655 (University At Albany, 2017)

Target: NAD-dependent protein deacylase sirtuin-6 (Homo sapiens, UniProt Q8N6T7)
Assay: Fluorimetric Assay
Experimental: Inhibitory constants (Ki) and IC50 values were determined under saturating substrate conditions by using a fluorimetric assay (components were purchased separately). […] Sirtuin deacetylation of the substrate renders the fluorophore-substrate bond susceptible to treatment with […]. Trypsin cleavage releases the fluorophore, resulting in an increase in fluorescence. Fluorescence intensity was measured on a Synergy HT Multi-Mode microplate fluorescence reader.

NAD-dependent protein deacylase sirtuin-6, sequence (Q8N6T7 whole entry): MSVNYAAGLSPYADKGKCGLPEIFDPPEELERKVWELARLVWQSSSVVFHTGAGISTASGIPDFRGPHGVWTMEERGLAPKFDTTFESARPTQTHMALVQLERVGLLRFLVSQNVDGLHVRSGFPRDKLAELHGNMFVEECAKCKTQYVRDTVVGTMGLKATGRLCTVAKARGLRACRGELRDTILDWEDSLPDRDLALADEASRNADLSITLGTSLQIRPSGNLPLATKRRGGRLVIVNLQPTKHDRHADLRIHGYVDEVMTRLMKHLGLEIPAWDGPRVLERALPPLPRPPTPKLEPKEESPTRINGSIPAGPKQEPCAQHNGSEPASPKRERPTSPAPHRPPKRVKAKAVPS

O=C(O)c1cnccn1
IC50: 927 µM

NC(=O)c1cnccn1 [Pyrazinamide]
IC50: 417 µM
